These results are taken from patent publication US7838674B2, “Tetracyclic lactame derivatives” (Novartis AG, priority 2007, dated 2010).

The target of one assay is human MK2 (Homo sapiens, UniProt P49137). Put plainly: MAPKAPK2 kinase assay (TR-FRET, Hsp27 peptide substrate).
Assay [1] deals with T1, MAPKAPK2 enzyme (HIS-MK2, Invitrogen PV4019) (Homo sapiens, UniProt P49137).
T1 construct: His; purchased Invitrogen PV4019
Put plainly: Alternative MAPKAPK2 assay (Caliper microfluidic mobility shift, HSP27-peptide). Format: biochemical. The settings on record: HIS-MK2 0.013 nM, ATP 10 μM, 60 min at 30° C.

Where a name gives a salt, the structure may show the parent alone.

As a reminder, the IC50 is the concentration at which inhibition is half-maximal.

Sequence of human MK2 (P49137 whole entry): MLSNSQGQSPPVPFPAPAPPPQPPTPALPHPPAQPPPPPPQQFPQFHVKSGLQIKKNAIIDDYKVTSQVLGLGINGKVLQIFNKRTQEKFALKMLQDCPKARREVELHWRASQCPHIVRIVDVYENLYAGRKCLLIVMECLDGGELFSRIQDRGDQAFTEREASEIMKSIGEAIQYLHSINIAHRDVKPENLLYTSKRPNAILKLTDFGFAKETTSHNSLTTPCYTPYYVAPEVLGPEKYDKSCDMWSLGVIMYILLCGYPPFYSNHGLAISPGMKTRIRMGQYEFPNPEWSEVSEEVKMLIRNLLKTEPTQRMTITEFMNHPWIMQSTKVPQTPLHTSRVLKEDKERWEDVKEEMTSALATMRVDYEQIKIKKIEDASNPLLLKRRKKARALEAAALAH
T1 sequence (P49137 whole entry): as above

`O=C1NC2(CNC2)Cc2[nH]c3c(c21)CCc1cnc(-c2cccc(F)c2)nc1-3` [Example 26, 2-(3-Amino-azetidin-3-ylmethyl)-8-(3-fluoro-phenyl)-4,5-dihydro-1H-1,7,9-triaza-cyclopenta[a]naphthalene-3-carboxylic acid lactam hydrochloride] returned a 50% inhibitory concentration (IC50) against human MK2 of 15 nM.

On to `Cn1c2c(c3c1-c1nc(-c4cccc(F)c4)ncc1CC3)C(=O)NC1(CNC1)C2` [Example 27, 2-(3-Amino-azetidin-3-ylmethyl)-8-(3-fluoro-phenyl)-1-methyl-4,5-dihydro-1H-1,7,9-triaza-cyclopenta[a]naphthalene-3-carboxylic acid lactam hydrochloride], for which the half-inhibitory concentration (IC50) on human MK2 came out at 43 nM.

For `O=C1NC2(CC2)Cc2[nH]c3c(c21)CCc1cnc(-c2ccc(N4CCCCC4)nc2)cc1-3` [Example 83, 2-(1-Amino-cyclopropylmethyl)-8-(3,4,5,6-tetrahydro-2H-[1,2′]bipyridinyl-5′-yl)-4,5-dihydro-1H-pyrrolo[2,3-f]isoquinoline-3-carboxylic acid lactam], the IC50 against human MK2 came out at 73 nM. The same measure, in the same setting: for `Cc1cncc(-c2cc3c(cn2)CCc2c-3[nH]c3c2C(=O)NC2(CC2)C3)c1` [Example 84, 2-(1-Amino-cyclopropylmethyl)-8-(5-methyl-pyridin-3-yl)-4,5-dihydro-1H-pyrrolo[2,3-f]isoquinoline-3-carboxylic acid lactam] the value was 39 nM; for `COc1cncc(-c2cc3c(cn2)CCc2c-3[nH]c3c2C(=O)NC2(CC2)C3)c1` [Example 87, 2-(1-Amino-cyclopropylmethyl)-8-(5-methoxy-pyridin-3-yl)-4,5-dihydro-1H-pyrrolo[2,3-f]isoquinoline-3-carboxylic acid lactam], 42 nM. On to `COc1ccc(-c2cc3c(cn2)CCc2c-3[nH]c3c2C(=O)NC2(CC2)C3)cn1` [Example 88, 2-(1-Amino-cyclopropylmethyl)-8-(6-methoxy-pyridin-3-yl)-4,5-dihydro-1H-pyrrolo[2,3-f]isoquinoline-3-carboxylic acid lactam], for which 38 nM corresponded to half-maximal inhibition against human MK2 (IC50).

On human MK2, `O=C1NC2(CC2)Cc2[nH]c3c(c21)CCc1cnc(-c2cncc(F)c2)cc1-3` [Example 89, 2-(1-Amino-cyclopropylmethyl)-8-(5-fluoro-pyridin-3-yl)-4,5-dihydro-1H-pyrrolo[2,3-f]isoquinoline-3-carboxylic acid lactam] displayed an IC50 of 79 nM. Still for that read-out and setting: with `CCOc1ccc(-c2cc3c(cn2)CCc2c-3[nH]c3c2C(=O)NC2(CC2)C3)cn1` [Example 90, 2-(1-Amino-cyclopropylmethyl)-8-(6-ethoxy-pyridin-3-yl)-4,5-dihydro-1H-pyrrolo[2,3-f]isoquinoline-3-carboxylic acid lactam] the figure was 91 nM. In the case of `O=C1NC2(CC2)Cc2[nH]c3c(c21)CCc1cnc(-c2cccnc2)cc1-3` [Example 93, 2-(1-Amino-cyclopropylmethyl)-8-pyridin-3-yl-4,5-dihydro-1H-pyrrolo[2,3-f]isoquinoline-3-carboxylic acid lactam], at human MK2, the IC50 amounted to 51 nM. As to `O=C1NC2(CC2)Cc2[nH]c3c(c21)CCc1cnc(-c2cncc(OC4CCOCC4)c2)cc1-3` [Example 94, 2-(1-Amino-cyclopropylmethyl)-8-[5-(tetrahydro-pyran-4-yloxy)-pyridin-3-yl]-4,5-dihydro-1H-pyrrolo[2,3-f]isoquinoline-3-carboxylic acid lactam], the IC50 on human MK2 amounted to 53 nM. `O=C1NC2(CC2)Cc2[nH]c3c(c21)CCc1cnc(-c2ccc(Oc4ccc(F)cc4F)nc2)cc1-3` [Example 95, 2-(1-Amino-cyclopropylmethyl)-8-[6-(2,4-difluoro-phenoxy)-pyridin-3-yl]-4,5-dihydro-1H-pyrrolo[2,3-f]isoquinoline-3-carboxylic acid lactam] yielded an IC50 against human MK2 of 100 nM. The compound `O=C1NC2(CC2)Cc2[nH]c3c(c21)CCc1cnc(-c2ccc(OC4CCOCC4)nc2)cc1-3` [Example 96, 2-(1-Amino-cyclopropylmethyl)-8-[6-(tetrahydro-pyran-4-yloxy)-pyridin-3-yl]-4,5-dihydro-1H-pyrrolo[2,3-f]isoquinoline-3-carboxylic acid lactam] showed an IC50 against human MK2 of 45 nM.

Regarding `O=C1NC2(CCC2)Cc2[nH]c3c(c21)CCc1cnc(-c2ccc(OC4CCOCC4)nc2)cc1-3` [Example 108, 2-(1-Amino-cyclobutylmethyl)-8-[6-(tetrahydro-pyran-4-yloxy)-pyridin-3-yl]-4,5-dihydro-1H-pyrrolo[2,3-f]isoquinoline-3-carboxylic acid lactam], the midpoint of inhibition against human MK2, the IC50, lay at 49 nM. In turn, `O=C1NC2(CCC2)Cc2[nH]c3c(c21)CCc1cnc(-c2cncc(OC4CCOCC4)c2)cc1-3` [Example 109, 2-(1-Amino-cyclobutylmethyl)-8-[5-(tetrahydro-pyran-4-yloxy)-pyridin-3-yl]-4,5-dihydro-1H-pyrrolo[2,3-f]isoquinoline-3-carboxylic acid lactam] had an IC50 against human MK2 of 42 nM. On the same count and under the same terms, for `O=C1NC2(CCC2)Cc2[nH]c3c(c21)CCc1cnc(-c2ccc(CN4CCOCC4)c(F)c2)cc1-3` [Example 110, 2-(1-Amino-cyclobutylmethyl)-8-(3-fluoro-4-morpholin-4-ylmethyl-phenyl)-4,5-dihydro-1H-pyrrolo[2,3-f]isoquinoline-3-carboxylic acid lactam] the value was 84 nM. Consider `O=C1NCC2(CNC2)c2[nH]c3c(c21)CCc1cnc(-c2ccc(C(F)(F)F)nc2)cc1-3` [Example 166, 2-(3-Aminomethyl-azetidin-3-yl)-8-(6-trifluoromethyl-pyridin-3-yl)-4,5-dihydro-1H-pyrrolo[2,3-f]isoquinoline-3-carboxylic acid lactam hydrochloride], for which, at human MK2, it took 7 nM to reach half-maximal inhibition (IC50).

`CN1CC2(CNC(=O)c3c2[nH]c2c3CCc3cnc(-c4ccc(C(F)(F)F)nc4)cc3-2)C1` [Example 168, 2-(3-Aminomethyl-1-methyl-azetidin-3-yl)-8-(6-trifluoromethyl-pyridin-3-yl)-4,5-dihydro-1H-pyrrolo[2,3-f]isoquinoline-3-carboxylic acid lactam] returned a half-maximal inhibitory concentration (IC50) against human MK2 of 14 nM. On human MK2, `Cn1c2c(c3c1C1(CNC1)CNC3=O)CCc1cnc(-c3ccc(C(F)(F)F)nc3)cc1-2` [Example 169, 2-(3-Aminomethyl-azetidin-3-yl)-8-(6-trifluoromethyl-pyridin-3-yl)-1-methyl-4,5-dihydro-1H-pyrrolo[2,3-f]isoquinoline-3-carboxylic acid lactam hydrochloride] came in with an IC50 of 93 nM. The same measure, in the same setting: with `COCc1ccc(CNC(=O)c2cccc(-c3cc4c(cn3)CCc3c-4[nH]c4c3C(=O)NC3(CC3)C4)c2)cc1` [Example 273] the figure was 19 nM; with `COc1ccc(CNC(=O)c2cccc(-c3cc4c(cn3)CCc3c-4[nH]c4c3C(=O)NC3(CC3)C4)c2)cn1` [Example 274], 16 nM; with `C[C@H](NC(=O)c1cccc(-c2cc3c(cn2)CCc2c-3[nH]c3c2C(=O)NC2(CC2)C3)c1)c1ccccc1` [Example 275], 20 nM. `O=C(NCc1ccccc1)c1cccc(-c2cc3c(cn2)CCc2c-3[nH]c3c2C(=O)NC2(CC2)C3)c1` [Example 276, 2-(1-Amino-cyclopropylmethyl)-8-(3-benzylcarbamoyl)-phenyl-4,5-dihydro-1H-pyrrolo[2,3-f]isoquinoline-3-carboxylic acid lactam] yielded an IC50 against human MK2 of 11 nM.

In turn, `N#Cc1cc(-c2cc3c(cn2)CCc2c-3[nH]c3c2C(=O)NCC32CC2)ccc1OCCN1CCOCC1` [Example 305, 2-(2-Morpholin-4-yl-ethoxy)-5-(7-oxo-10-spirocyclopropyl-6,7,8,9,10,11-hexahydro-5H-3,8,11-triaza-benzo[a]fluoren-2-yl)-benzonitrile] had an IC50 at human MK2 of 12 nM. The same measure, in the same setting: for `CN1CCN(c2ccc(-c3cc4c(cn3)CCc3c-4[nH]c4c3C(=O)NCC43CC3)cc2C#N)CC1` [Example 306, 2-(4-Methyl-piperazin-1-yl)-5-(7-oxo-10-spirocyclopropyl-6,7,8,9,10,11-hexahydro-5H-3,8,11-triaza-benzo[a]fluoren-2-yl)-benzonitrile] the value was 9 nM; for `N#Cc1cc(-c2cc3c(cn2)CCc2c-3[nH]c3c2C(=O)NCC32CC2)ccc1N1CCOCC1` [Example 307, 2-Morpholin-4-yl-5-(7-oxo-10-spirocyclopropyl-6,7,8,9,10,11-hexahydro-5H-3,8,11-triaza-benzo[a]fluoren-2-yl)-benzonitrile], 14 nM. Same read-out and setting: with `CN(C)CCOc1ccc(-c2cc3c(cn2)CCc2c-3[nH]c3c2C(=O)NCC32CC2)cc1C#N` [Example 308, 2-(2-Dimethylamino-ethoxy)-5-(7-oxo-10-spirocyclopropyl-6,7,8,9,10,11-hexahydro-5H-3,8,11-triaza-benzo[a]fluoren-2-yl)-benzonitrile] the figure was 15 nM; with `COCCOc1ccc(-c2cc3c(cn2)CCc2c-3[nH]c3c2C(=O)NCC32CC2)cc1C#N` [Example 309, 2-(2-Methoxy-ethoxy)-5-(7-oxo-10-spirocyclopropyl-6,7,8,9,10,11-hexahydro-5H-3,8,11-triaza-benzo[a]fluoren-2-yl)-benzonitrile], 20 nM; with `COCCOc1cc(-c2cc3c(cn2)CCc2c-3[nH]c3c2C(=O)NCC32CC2)ccc1F` [Example 310, 2-[4-Fluoro-3-(2-methoxy-ethoxy)-phenyl]-10-spirocyclopropyl-5,6,8,9,10,11-hexahydro-3,8,11-triaza-benzo[a]fluoren-7-one], 97 nM. Turning to `CN(C)CCOc1cc(-c2cc3c(cn2)CCc2c-3[nH]c3c2C(=O)NCC32CC2)ccc1F` [Example 311, 2-[3-(2-Dimethylamino-ethoxy)-4-fluoro-phenyl]-10-spirocyclopropyl-5,6,8,9,10,11-hexahydro-3,8,11-triaza-benzo[a]fluoren-7-one], the 50% inhibitory concentration (IC50) (in assay [1]; against human MK2) was 27 nM throughout. As for `N#Cc1cc(-c2cc3c(cn2)CCc2c-3[nH]c3c2C(=O)NCC32CC2)ccc1N1CCC(O)C1` (centres unmarked) [Example 312, 2-(3-Hydroxy-pyrrolidin-1-yl)-10-spirocyclopropyl-5-(7-oxo-6,7,8,9,10,11-hexahydro-5H-3,8,11-triaza-benzo[a]fluoren-2-yl)-benzonitrile], the IC50 (in assay [1]; on human MK2) was 15 nM throughout.
